Test results taken from patent US7459268B2, “Method for screening agent acting on cell wall” (Daiichi Pharmaceutical Co., Ltd., priority 2001, dated 2008).

Tests used:
[1] = tested on: AY-2 strain (wall-type arming yeast); assay: GFP releasing effect of available antifungal agents, wall-type arming yeast; format: cell-based, S. cerevisiae; conditions: RPMIB medium protected for osmotic pressure
Experimental: (§1) The cultured yeast cells in the logarithmic growth phase (AY-2 strain or AY-12 strain) were collected, and various agents were allowed to act on the yeast cells. Fluorescence intensity of the culture supernatant was measured by using Cytofluor 2300 Fluorometer (Millipore, excitation=480 nm, emission=530 nm). The fluorescence intensity under treatment with each of various agents was shown in terms of a difference in fluorescence intensity compared with that of a control in which no agent was added.
(§2) In order to ascertain whether or not the aforementioned method can be utilized for a screening of agents with a targeting site other than Kre6p, the GFP releasing effects in the AY-2 strain (wall-type arming yeast) and the AY-12 strain (membrane-type arming yeast) were compared under actions of available antifungal agents. The AY-2 strain cells and the AY-12 strain cells each cultured in a test tube were suspended with a medium (RPMIB) protected for osmotic pressure, and each of the agents was allowed to act on the cells. After the culture, the fluorescence intensity of the supernatant was measured, and a difference from that of a control with no addition of the agent was calculated.

[2] = tested on: AY-12 strain (membrane-type arming yeast); assay: GFP releasing effect of available antifungal agents, membrane-type arming yeast; format: cell-based, S. cerevisiae; conditions: RPMIB medium protected for osmotic pressure
Experimental: as §1, §2

AY-14 strain [3] = assay: GFP release by cell wall synthesis inhibitors; format: cell-based, Saccharomyces cerevisiae; conditions: each agent alone
Source text: As agents confirmed to have a yeast cell wall synthesis inhibitory action, tunicamycin (TM, Funakoshi, Tokyo), aculeacin A (AC, Wako Pure Chemical Industries, Osaka) and staurosporine (SP, Boehringer Mannheim, Tokyo) were used. The AY-14 strain was used as a microorganism.
Thus, it is evident that inhibitors for the (1,3)-β-glucan synthesis pathway, N-type saccharide chain synthesis pathway, saccharide chain (glucan) synthesis regulatory pathway and the like can also be screened.

AY-14 strain [4] = assay: Molecular weight of released GFP by Western blotting after agent treatment; format: cell-based, Saccharomyces cerevisiae; conditions: agent alone
Experimental: Cells at the logarithmic growth phase were collected after inoculation to the liquid medium and culture at 30° C., and suspended in a fresh medium of the same type to prepare a cell suspension for inoculation. The cells were cultured at 30° C. Fluorescence intensity of the culture supernatant was measured (excitation=480 nm, emission=530 nm) by using ARVO sx (Wallac, Tokyo). The GFP releasing effect of the gene-disrupted strains was represented in terms of a difference with that of a non-gene-disrupted strain (AY-10u strain or AY12u strain). After the measurement of fluorescence intensity, the culture supernatants were concentrated by ultrafiltration. The concentrated supernatants were subjected to separation by SDS-PAGE and blotted on a PVDF membrane, and GFP was detected by using commercially available anti-GFP antibodies (rabbit IgG, Santa Cruz Biotechnology) to compare the molecular weights (Western blotting).
As agents confirmed to have a yeast cell wall synthesis inhibitory action, tunicamycin (TM, Funakoshi, Tokyo), aculeacin A (AC, Wako Pure Chemical Industries, Osaka) and staurosporine (SP, Boehringer Mannheim, Tokyo) were used. The AY-14 strain was used as a microorganism. […]

| Molecule | GFP releasing effect (fluorescence intensity of culture supernatant, difference from control with no agent) [1] | GFP releasing effect (fluorescence intensity of culture supernatant, difference from control with no agent) [2] | release of GFP (AY-14 strain [3]) | molecular weight of released GFP compared with that in the absence of agent (AY-14 strain [4]) |
| --- | --- | --- | --- | --- |
| C[C@@H]1[C@H](O)[C@@H](C)/C=C/C=C/C=C/C=C/C=C/C=C/C=C/[C@H](O[C@@H]2O[C@H](C)[C@@H](O)[C@H](N)[C@@H]2O)C[C@@H]2O[C@](O)(C[C@@H](O)C[C@@H](O)[C@H](O)CC[C@@H](O)C[C@@H](O)CC(=O)O[C@H]1C)C[C@H](O)[C@H]2C(=O)O [Amphotericin B] | Slight releasing effect | Slight releasing effect | – | – |
| OC(Cn1cncn1)(Cn1cncn1)c1ccc(F)cc1F [Fluconazole] | Slight releasing effect | Slight releasing effect | – | – |
| CN[C@@H]1C[C@H]2O[C@@](C)([C@@H]1OC)n1c3ccccc3c3c4c(c5c6ccccc6n2c5c31)C(=O)NC4 [SP, staurosporine] | – | – | release of GFP was observed | – |
| CC[C@@H](C(=O)[C@@H](C)[C@@H](O)[C@H](C)[C@@H]1O[C@@H]([C@@H](CC)C(=O)O)CC[C@@H]1C)[C@H]1O[C@]2(C=C[C@@H](O)[C@]3(CC[C@@](C)([C@H]4CC[C@](O)(CC)[C@H](C)O4)O3)O2)[C@H](C)C[C@@H]1C [Salinomycin] | Slight releasing effect | Slight releasing effect | – | – |
| Aculeacin A | Marked GFP releasing effect | almost no releasing effect | release of GFP was observed | – |
| Tunicamycin | Marked GFP releasing effect | almost no releasing effect | release of GFP was observed | markedly lowered |
